Columns and labels:
[1] = target: T1, PIP4K2A (full length protein, SignalChem) (Homo sapiens, UniProt P48426); test: Kinase Assay PIP4K2 A (Sprint); ADP-Glo biochemical assay; settings: Table 2; compounds listed under IC50 range headings
T1 construct: 4 nM PIP4K2A (full length protein, SignalChem); purchased SignalChem
T1 sequence (P48426 1-406): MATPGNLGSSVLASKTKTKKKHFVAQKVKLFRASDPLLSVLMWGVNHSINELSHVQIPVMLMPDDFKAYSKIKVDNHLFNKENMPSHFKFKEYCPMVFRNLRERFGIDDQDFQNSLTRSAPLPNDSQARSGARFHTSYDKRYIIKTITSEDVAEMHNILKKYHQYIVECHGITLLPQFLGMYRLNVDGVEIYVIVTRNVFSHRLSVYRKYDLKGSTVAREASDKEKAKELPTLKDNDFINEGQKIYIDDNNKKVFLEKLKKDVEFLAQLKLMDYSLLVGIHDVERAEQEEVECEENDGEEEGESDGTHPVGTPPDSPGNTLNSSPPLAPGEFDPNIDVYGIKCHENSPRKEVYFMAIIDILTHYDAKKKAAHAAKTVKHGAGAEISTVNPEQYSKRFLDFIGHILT
Procedure, shortened: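 ADP-Glo luminescence detected ADP after a 1 h RT reaction started with 60 μM ATP solution. Before that, full-length PIP4K2A (4 nM in mix) with 100 μM PI(5)P diC8 was pre-incubated 15 min with compounds in MOPS buffer pH 7.2, 25 mM MgCl2, 0.005% Tween 20. IC50 derived from % inhibition relative to DMSO over 10 three-fold concentrations.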

GST tagged PIP4KtypeIIB = target: T2, GST tagged PIP4KtypeIIB (Homo sapiens, UniProt P78356); test: Trans-FI P kinase assay PIP4K2B (PIP4KtypeIIB inhibition assay); format: biochemical; settings: Table 4; compounds listed under IC50 range headings; 100 uM GTP, 5 nM PIP4KIIB; read-out: Trans-FI P kinase assays: PIP4K2B IC50
T2 construct: made in house; host or cells: E. coli
T2 sequence (P78356 1-416): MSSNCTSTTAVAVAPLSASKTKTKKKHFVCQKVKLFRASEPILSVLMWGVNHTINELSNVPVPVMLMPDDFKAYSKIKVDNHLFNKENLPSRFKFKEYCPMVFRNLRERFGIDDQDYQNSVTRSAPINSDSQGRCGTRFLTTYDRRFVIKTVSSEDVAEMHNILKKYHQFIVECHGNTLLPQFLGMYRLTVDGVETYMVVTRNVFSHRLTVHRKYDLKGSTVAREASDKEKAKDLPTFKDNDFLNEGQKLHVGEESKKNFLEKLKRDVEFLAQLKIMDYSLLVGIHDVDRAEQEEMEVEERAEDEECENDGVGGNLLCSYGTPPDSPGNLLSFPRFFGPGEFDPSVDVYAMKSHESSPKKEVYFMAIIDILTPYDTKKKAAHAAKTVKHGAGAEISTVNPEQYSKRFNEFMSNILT
Procedure, shortened: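 Transcreener FI fluorescence, converted to GDP by calibration, tracked product from 5 nM E. coli-expressed GST-PIP4KIIB acting on 80 uM PI5P (DOPE carrier) with 100 uM GTP. Compound (top 4.8 uM final, 5% DMSO) was preincubated 1 h at 27 C before the 2 h reaction; IC50 fitted from residual activity.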

Cc1c2n(c3nccc(-c4cncc(-c5ccc(-c6nncn6C6CCC6)cc5)c4)c13)CCN(c1ccccn1)C2=O [Example 356, 4-(5-(4-(4-cyclobutyl-4H-1,2,4-triazol-3-yl)phenyl)pyridin-3-yl)-5-methyl-7-(pyridin-2-yl)-8,9-dihydropyrido[3′,2′:4,5]pyrrolo[1,2-a]pyrazin-6(7H)-one]
IC50 [1]: < 5000 nM
IC50 (GST tagged PIP4KtypeIIB): 100 to 1000 nM

O=C(NCc1ncco1)c1cc2c(-c3cncc(-c4ccc(N5CCCC5=O)cc4)c3)ccnc2[nH]1 [Example 330, N-(oxazol-2-ylmethyl)-4-(5-(4-(2-oxopyrrolidin-1-yl)phenyl)pyridin-3-yl)-1H-pyrrolo[2,3-b]pyridine-2-carboxamide]
IC50 [1]: 100 to 1000 nM
IC50 (GST tagged PIP4KtypeIIB): 10 to 100 nM

CC(C)n1cnnc1-c1ccc(-c2cncc(-c3ccnc4[nH]c(C(=O)NCCOCCOCCOCCNC(=O)COc5cccc6c5C(=O)N(C5CCC(=O)NC5=O)C6=O)cc34)c2)cc1 (stereo not drawn) [Example 389, N-(1-((2-(2,6-dioxopiperidin-3-yl)-1,3-dioxoisoindolin-4-yl)oxy)-2-oxo-6,9,12-trioxa-3-azatetradecan-14-yl)-4-(5-(4-(4-isopropyl-4H-1,2,4-triazol-3-yl)phenyl)pyridin-3-yl)-1H-pyrrolo[2,3-b]pyridine-2-carboxamide]
IC50 [1]: < 5000 nM
IC50 (GST tagged PIP4KtypeIIB): 100 to 1000 nM

CN1CCn2c(cc3c(-c4cncc(-c5ccc(C(=O)N6CCOCC6)cc5)c4)ccnc32)C1=O [Example 327, 7-methyl-4-(5-(4-(morpholine-4-carbonyl)phenyl)pyridin-3-yl)-8,9-dihydropyrido[3′,2′:4,5]pyrrolo[1,2-a]pyrazin-6(7H)-one]
IC50 [1]: 2500 to 5000 nM
IC50 (GST tagged PIP4KtypeIIB): 100 to 1000 nM

O=C(c1cc2c(-c3cncc(-c4ccc(N5CCCC5=O)cc4)c3)ccnc2[nH]1)N1CCCC(O)(C2CC2)C1 (stereo not drawn) [Example 210, 1-(4-(5-(2-(3-cyclopropyl-3-hydroxypiperidine-1-carbonyl)-1H-pyrrolo[2,3-b]pyridin-4-yl)pyridin-3-yl)phenyl)pyrrolidin-2-one]
IC50 [1]: 100 to 1000 nM
IC50 (GST tagged PIP4KtypeIIB): 100 to 1000 nM

CC(C)n1cnnc1-c1ccc(-c2cncc(-c3ccnc4[nH]c(C(=O)NCc5ccccc5)cc34)c2)cc1 [Example 373, N-benzyl-4-(5-(4-(4-isopropyl-4H-1,2,4-triazol-3-yl)phenyl)pyridin-3-yl)-1H-pyrrolo[2,3-b]pyridine-2-carboxamide]
IC50 [1]: 100 to 1000 nM
IC50 (GST tagged PIP4KtypeIIB): 10 to 100 nM

O=C(NCc1cccc2c1COB2O)c1cc2c(-c3cncc(-c4ccc(N5CCCC5=O)cc4)c3)ccnc2[nH]1 [Example 301, N-((1-hydroxy-1,3-dihydrobenzo[c][1,2]oxaborol-4-yl)methyl)-4-(5-(4-(2-oxopyrrolidin-1-yl)phenyl)pyridin-3-yl)-1H-pyrrolo[2,3-b]pyridine-2-carboxamide]
IC50 [1]: 5 to 100 nM
IC50 (GST tagged PIP4KtypeIIB): 10 to 100 nM

Cc1cccc2[nH]c(CNC(=O)c3cc4c(-c5cncc(-c6ccc(N7CCCC7=O)cc6)c5)ccnc4[nH]3)nc12 [Example 317, N-((4-methyl-1H-benzo[d]imidazol-2-yl)methyl)-4-(5-(4-(2-oxopyrrolidin-1-yl)phenyl)pyridin-3-yl)-1H-pyrrolo[2,3-b]pyridine-2-carboxamide]
IC50 [1]: < 5000 nM
IC50 (GST tagged PIP4KtypeIIB): 10 to 100 nM

CNC(=O)c1[nH]c2nccc(-c3cncc(-c4ccc(N5CCCC5=O)cc4)c3)c2c1C [Example 313, N,3-dimethyl-4-(5-(4-(2-oxopyrrolidin-1-yl)phenyl)pyridin-3-yl)-1H-pyrrolo[2,3-b]pyridine-2-carboxamide]
IC50 [1]: 1000 to 2500 nM
IC50 (GST tagged PIP4KtypeIIB): 100 to 1000 nM

CC(C)n1cnnc1-c1ccc(-c2cncc(-c3ccnc4c3cc3n4CCN(Cc4ccncc4)C3=O)c2)cc1 [Example 385, 4-(5-(4-(4-isopropyl-4H-1,2,4-triazol-3-yl)phenyl)pyridin-3-yl)-7-(pyridin-4-ylmethyl)-8,9-dihydropyrido[3′,2′:4,5]pyrrolo[1,2-a]pyrazin-6(7H)-one]
IC50 [1]: 100 to 1000 nM
IC50 (GST tagged PIP4KtypeIIB): 1 to 10 nM

O=C(c1cc2c(-c3cncc(-c4ccc(N5CCCC5=O)cc4)c3)ccnc2[nH]1)N1CCCC2(CCCO2)C1 (stereo not drawn) [Example 332, 1-(4-(5-(2-(1-oxa-7-azaspiro[4.5]decane-7-carbonyl)-1H-pyrrolo[2,3-b]pyridin-4-yl)pyridin-3-yl)phenyl)pyrrolidin-2-one]
IC50 [1]: 100 to 1000 nM
IC50 (GST tagged PIP4KtypeIIB): 100 to 1000 nM

CN(C(=O)c1cc2c(-c3cncc(-c4ccc(N5CCCC5=O)cc4)c3)ccnc2[nH]1)c1cccnc1 [Example 310, N-methyl-4-(5-(4-(2-oxopyrrolidin-1-yl)phenyl)pyridin-3-yl)-N-(pyridin-3-yl)-1H-pyrrolo[2,3-b]pyridine-2-carboxamide]
IC50 [1]: 100 to 1000 nM
IC50 (GST tagged PIP4KtypeIIB): 100 to 1000 nM

CCN(C)C(=O)c1ccc(-c2cncc(-c3ccnc4c3cc3n4CCN(C)C3=O)c2)cc1 [Example 324, N-ethyl-N-methyl-4-(5-(7-methyl-6-oxo-6,7,8,9-tetrahydropyrido[3′,2′:4,5]pyrrolo[1,2-a]pyrazin-4-yl)pyridin-3-yl)benzamide]
IC50 [1]: 100 to 1000 nM
IC50 (GST tagged PIP4KtypeIIB): 10 to 100 nM

CC(C)n1cnnc1-c1ccc(-c2cncc(-c3ccnc4[nH]c(C(=O)NCCc5ccncc5)cc34)c2)cc1 [Example 371, 4-(5-(4-(4-isopropyl-4H-1,2,4-triazol-3-yl)phenyl)pyridin-3-yl)-N-(2-(pyridin-4-yl)ethyl)-1H-pyrrolo[2,3-b]pyridine-2-carboxamide]
IC50 [1]: 100 to 1000 nM
IC50 (GST tagged PIP4KtypeIIB): 10 to 100 nM

CN1CCn2c(cc3c(-c4cncc(-c5ccc(C(=O)N6CC(C)(C)C6)cc5)c4)ccnc32)C1=O [Example 381, 4-(5-(4-(3,3-dimethylazetidine-1-carbonyl)phenyl)pyridin-3-yl)-7-methyl-8,9-dihydropyrido[3′,2′:4,5]pyrrolo[1,2-a]pyrazin-6(7H)-one]
IC50 [1]: 100 to 1000 nM
IC50 (GST tagged PIP4KtypeIIB): 100 to 1000 nM

O=C(COc1cccc2c1C(=O)N(C1CCC(=O)NC1=O)C2=O)NCCOCCOCCOCCNC(=O)c1cc2c(-c3cncc(-c4ccc(N5CCCC5=O)cc4)c3)ccnc2[nH]1 (stereo not drawn) [Example 393, N-(1-((2-(2,6-dioxopiperidin-3-yl)-1,3-dioxoisoindolin-4-yl)oxy)-2-oxo-6,9,12-trioxa-3-azatetradecan-14-yl)-4-(5-(4-(2-oxopyrrolidin-1-yl)phenyl)pyridin-3-yl)-1H-pyrrolo[2,3-b]pyridine-2-carboxamide]
IC50 [1]: 1000 to 2500 nM
IC50 (GST tagged PIP4KtypeIIB): 100 to 1000 nM

CN1CCn2c(cc3c(-c4cncc(-c5ccc(-c6nncn6C(C)(C)C)cc5)c4)ccnc32)C1=O [Example 377, 4-(5-(4-(4-(tert-butyl)-4H-1,2,4-triazol-3-yl)phenyl)pyridin-3-yl)-7-methyl-8,9-dihydropyrido[3′,2′:4,5]pyrrolo[1,2-a]pyrazin-6(7H)-one]
IC50 [1]: 5 to 100 nM
IC50 (GST tagged PIP4KtypeIIB): 1 to 10 nM

Cn1c(CNC(=O)c2cc3c(-c4cncc(-c5ccc(N6CCCC6=O)cc5)c4)ccnc3[nH]2)nc2ccccc21 [Example 321, N-((1-methyl-1H-benzo[d]imidazol-2-yl)methyl)-4-(5-(4-(2-oxopyrrolidin-1-yl)phenyl)pyridin-3-yl)-1H-pyrrolo[2,3-b]pyridine-2-carboxamide]
IC50 [1]: < 5000 nM
IC50 (GST tagged PIP4KtypeIIB): 100 to 1000 nM

Cc1ccnnc1-c1ccc(-c2cncc(-c3ccnc4c3cc3n4CCN(C)C3=O)c2)cc1 [Example 370, 7-methyl-4-(5-(4-(4-methylpyridazin-3-yl)phenyl)pyridin-3-yl)-8,9-dihydropyrido[3′,2′:4,5]pyrrolo[1,2-a]pyrazin-6(7H)-one]
IC50 [1]: 5 to 100 nM
IC50 (GST tagged PIP4KtypeIIB): 1 to 10 nM

CN1CCn2c(cc3c(-c4cncc(-c5ccc(-c6nncn6C6CCC6)cc5)c4)ccnc32)C1=O [Example 365, 4-(5-(4-(4-cyclobutyl-4H-1,2,4-triazol-3-yl)phenyl)pyridin-3-yl)-7-methyl-8,9-dihydropyrido[3′,2′:4,5]pyrrolo[1,2-a]pyrazin-6(7H)-one]
IC50 [1]: 1000 to 2500 nM
IC50 (GST tagged PIP4KtypeIIB): 10 to 100 nM

O=C(Nc1cccnc1)c1cc2c(-c3cncc(-c4ccc(N5CCCC5=O)cc4)c3)ccnc2[nH]1 [Example 328, 4-(5-(4-(2-oxopyrrolidin-1-yl)phenyl)pyridin-3-yl)-N-(pyridin-3-yl)-1H-pyrrolo[2,3-b]pyridine-2-carboxamide]
IC50 [1]: 2500 to 5000 nM
IC50 (GST tagged PIP4KtypeIIB): 10 to 100 nM

Source: US11919902B2, “Aryl-bipyridine amine derivatives as phosphatidylinositol phosphate kinase inhibitors” (HiberCell, Inc., priority 2017, dated 2024)
